US6569846B1, “Palladium-substituted bacteriochlorophyll derivatives and use thereof” (Yeda Research and Development Co. Ltd., priority 1998, dated 2003)

System: M2R mouse melanoma cells
Experiment: Phototoxicity on M2R cells (Example 10, [3H]-thymidine incorporation)
Assay type: cell-based
Conditions: pigments dissolved directly in culture medium containing 10% serum
Experimental: The diluted pigments were added and the cells were incubated in the dark for four hours at 37° C. Prior to illumination, the cells were washed once and replaced with fresh culture medium. The plates were then illuminated from the bottom for 10 minutes at room temperature and placed in the culture incubator at 37° C. in the dark. […] The following control systems were used: Dark control—untreated cells kept in the dark; Light control—cells not treated with sensitizer that were illuminated; Dark toxicity—cells treated with pigment but kept in the dark.

## Pd-Bacteriopheophorbide a ethyl ester [Pd-BPheid-ethyl ester, reference compound]
  concentration up to which not active at all (highest concentration tested): > 1 µM
